We go through five compounds from patent publication US8450305B2, “Macrocyclic compounds useful as inhibitors of kinases and HSP90” (Universite de Strasbourg, priority 2006, dated 2013).

Series [1] has as its system HCC1954 tumor cells. The series can be described thus: Cytotoxicity, MTS assay, HCC1954. The series is classed as cell-based. As to conditions: Homo sapiens, 72 hours. Here is the method:
(§1) Tumor cells were grown as adherent monolayers at 37° C. in a humidified atmosphere (5% CO2, 95% air). The culture medium was RPMI 1640 containing 2 mM L-glutamine (Ref BE12-702F, Cambrex, Verviers, Belgium) and supplemented with 10% fetal bovine serum (Ref DE14-801E, Cambrex). For experimental use, the adherent tumour cells were detached from the culture flask by a 5-minute treatment with trypsin-versene (Ref O2-007E, Cambrex), diluted in Hanks' medium without calcium or magnesium (Ref BE10-543F, Cambrex) and neutralized by addition of complete culture medium. Before use, cells were counted in a hemocytometer and their viability were assessed by 0.25% trypan blue exclusion. Mycoplasma detection was performed using the MycoAlert® Mycoplasma Detection Kit (Ref LT07-318, Cambrex) in accordance with the manufacturer instructions. The MycoAlert®Assay is a selective biochemical test that exploits the activity of mycoplasmal enzymes. The viable mycoplasma are lysed and the enzymes react with the MycoAlert® substrate catalyzing the conversion of ADP to ATP. By measuring the level of ATP in a sample both before and after the addition of the MycoAlert® substrate a ratio can be obtained which is indicative of the presence or absence of mycoplasma. The mycoplasma test was assayed in duplicate from the culture supernatants of the cell lines and compared to negative and positive controls (MycoAlert® Assay Control Set, Ref LT07-518, Cambrex) (Internal Standard Operating Procedure No TEC-007/002). Both HCC1954 and SK-BR-3 tumour cells (5,000 cells per well) were plated in 96-well flat-bottom microtitration plates (Ref 167008, Nunc, Dutscher, Brumath, France) and incubated at 37° C. for 24 hours before treatment in 190 μl of drug-free culture medium supplemented with 10% FBS. Both HCC1954 and SK-BR-3 tumour cell lines were incubated for 72 hours with […], in ¼ dilution steps, of the test substances (ranging from […]) to be tested as well as paclitaxel (ranging from 10^−7 to 10^−12 M). The cells (190 μl) will be incubated in a 200 μl final volume of culture medium supplemented with 10% FBS containing test substances at 37° C. under 5% CO2. One experiment is performed, each concentration being issued from quadruplicate. Control cells are treated with corresponding vehicle alone. At the end of treatments, the cytotoxic activity is evaluated by a MTS assay. […] Like MTT, MTS is bioreduced by cells into a formazan product that is directly soluble in culture medium without processing, unlike MTT.
(§2) At the end of the cells treatment, 40 μl of a 0.22 μm filtered freshly combined solution of MTS (20 ml at 2 mg/ml, Ref G1111A, Promega, Charbonnières, France) and PMS (1 ml at 0.92 mg/ml, Ref P9625, Sigma) in Dulbecco's Phosphate Buffered Saline (DPBS, Ref 17-513F, Cambrex), were added in each well. Culture plates were incubated for 2 h at 37° C. Absorbency (OD) will be measured at 490 nm in each well using VICTOR^3™ 1420 multilabeled counter (Wallac, PerkinElmer, Courtaboeuf, France).
Background: Formazan colour is commonly taken as a measure of viable cells.

Series [2] deals with SK-BR-3 tumor cells. Description: Cytotoxicity, MTS assay, SK-BR-3. As to conditions: Homo sapiens, 72 hours. Type of series: cell-based. Here is the method: as §1, §2
Series [3] relates to ErbB2. Description: Degradation of HSP90 client protein ErbB2 in SK-BR3, Western blotting. Type of series: cell-based. As to conditions: Homo sapiens; for EC50: read-out: EC50, degradation of ErbB2. From the text:
Thus, after 18 hrs treatment with the compounds, the whole cell protein lysates were obtained, protein concentrations were normalized and the concentration of ErbB2 was quantified by Western blotting (C. Chavany et al J. Biol. Chem. 271:4974-4977 (1996)).
Background: In western blotting, separated proteins are transferred to a membrane and probed.

The subject of series [4] is HCC1954 cells. The series can be described thus: Antitumor activity, HCC1954 induced tumors in CB17/SCID mice. The series is classed as in vivo. Here is the method: The compounds of the invention were evaluated for antitumor activity in mice. Tumors were induced […] in healthy CB17/SCID mice by injecting HCC1954 cells into the right flank of 70 mice. Once the induced tumors were an average size of […], the mice were treated with compound a2-1 at 25 mg/kg, 50 mg/kg and 100 mg/kg. Controls of vehicle alone and Herceptin® at 10 mg/kg were utilized.

Series [5] in a line: Maximum tolerated dose in healthy CB17/SCID mice. Type of series: in vivo. Here is the method: Three healthy CB17/SCID mice were treated with compound 2a-1 at 25 mg/kg, 50 mg/kg and 100 mg/kg once daily for five consecutive days.
The test system of series [6] is HER-2. As to conditions: HER-2 degradation assay; cited from earlier work.
The test system of series [7] is panel of 24 kinase. Description: Radiometric protein kinase assay (33PanQinase), panel of 24 kinases. Type of series: biochemical, human. As to conditions: for inhibition in a panel of 24 kinase: at 10 μM. The text has this: (§3) All protein kinases were expressed in Sf9 insect cells as human recombinant GST-fusion proteins or His-tagged proteins by means of the baculovirus expression system. Kinases were purified by affinity chromatography using either GSH-agarose (Sigma) or Ni-NTH-agarose (Qiagen). The purity of each kinase was checked by SDS-PAGE/silver staining and the identity of each kinase was verified by western blot analysis with kinase specific antibodies or by mass spectroscopy.
A radiometric protein kinase assay (^33PanQinase® Activity Assay) was used for measuring the kinase activity of the 24 protein kinases.
(§4) The assay for all enzymes contained 60 mM HEPES-NaOH, pH 7.5, 3 mM MgCl2, 3 mM MnCl2, 3 μM Na-orthovanadate, 1.2 mM DTT, 50 μg/ml PEG20000, 1 μM [γ-^33P]-ATP (approx. 5×10^05 cpm per well).
(§5) The reaction cocktails were incubated at 30° C. for 80 minutes. The reaction was stopped with 50 μl of 2% (v/v) H3PO4, plates were aspirated and washed two times with 200 μl of 0.9% (w/v) NaCl or 200 μl H2O. Incorporation of ^33Pi was determined with a microplate scintillation counter (Microbeta Trilux, Wallac).
(§6) The median value of the counts in column 1 (n=8) of each assay plate was defined as “low control”. This value reflects unspecific binding of radioactivity to the plate in the absence of a protein kinase but in the presence of the substrate. The median value of the counts in column 7 of each assay plate (n=8) was taken as the “high control”, i.e. full activity in the absence of any inhibitor. The difference between high and low control was taken as 100% activity.
(§7) As part of the data evaluation the low control value from a particular plate was subtracted from the high control value as well as from all 80 “compound values” of the corresponding plate. The residual activity (in %) for each well of a particular plate was calculated by using the following formula: Res. Activity (%)=100×[(cpm of compound−low control)/(high control−low control)]

In series [8] the target is T1, VEGF-R2 (Homo sapiens, UniProt P35968).
T1 construct: host or cells: Sf9 insect cells (baculovirus)
Description: Radiometric protein kinase assay, VEGF-R2. Type of series: biochemical. As to conditions: 1 μM ATP; read-out: Inhibitory activity (IC50:μM) VEGF-R2.
Excerpt: as §3
A radiometric protein kinase assay (^33PanQinase® Activity Assay) was used for measuring the kinase activity of the 24 protein kinases. All kinase assays were performed in 96-well FlashPlates™ from Perkin Elmer (Boston, Mass., USA) in a 50 μl reaction volume. The reaction cocktail was pipetted in 4 steps in the following order: • 20 μl of assay buffer • 5 μl of ATP solution (in H2O) • 5 μl of test compound (in 10% DMSO) • 10 μl of substrate/10 […] of enzyme solution (premixed)
as §4
For the 24 kinase assays, the following amounts of enzyme and substrate were used per well:
as §5, §6, §7
The residual activities for each concentration and the compound IC50 values were calculated using Quattro Workflow V2.1.0.0 (Quattro Research GmbH, Munich, Germany; www.quattro-research.com). The model used was “Sigmoidal response (variable slope)” with parameters “top” fixed at 100% and “bottom” at 0%.

Series [9] deals with tumor xenograft models. The following applies: in vivo; cited from earlier work.
For series [10] the following is noted: cited from earlier work.
The target of series [11] is T2, HSP90 (Homo sapiens, UniProt P07900). The series can be described thus: HSP90 affinity, competition assay with geldanamycin. The series is classed as binding.
The target in series [12] is T2, HSP90. The following applies: reported; read-out: inhibitor of HSP90; cited from earlier work.

Structures are written as SMILES. Where two headings read alike, the source gives them in different places.

T1 sequence (P35968 20-1356): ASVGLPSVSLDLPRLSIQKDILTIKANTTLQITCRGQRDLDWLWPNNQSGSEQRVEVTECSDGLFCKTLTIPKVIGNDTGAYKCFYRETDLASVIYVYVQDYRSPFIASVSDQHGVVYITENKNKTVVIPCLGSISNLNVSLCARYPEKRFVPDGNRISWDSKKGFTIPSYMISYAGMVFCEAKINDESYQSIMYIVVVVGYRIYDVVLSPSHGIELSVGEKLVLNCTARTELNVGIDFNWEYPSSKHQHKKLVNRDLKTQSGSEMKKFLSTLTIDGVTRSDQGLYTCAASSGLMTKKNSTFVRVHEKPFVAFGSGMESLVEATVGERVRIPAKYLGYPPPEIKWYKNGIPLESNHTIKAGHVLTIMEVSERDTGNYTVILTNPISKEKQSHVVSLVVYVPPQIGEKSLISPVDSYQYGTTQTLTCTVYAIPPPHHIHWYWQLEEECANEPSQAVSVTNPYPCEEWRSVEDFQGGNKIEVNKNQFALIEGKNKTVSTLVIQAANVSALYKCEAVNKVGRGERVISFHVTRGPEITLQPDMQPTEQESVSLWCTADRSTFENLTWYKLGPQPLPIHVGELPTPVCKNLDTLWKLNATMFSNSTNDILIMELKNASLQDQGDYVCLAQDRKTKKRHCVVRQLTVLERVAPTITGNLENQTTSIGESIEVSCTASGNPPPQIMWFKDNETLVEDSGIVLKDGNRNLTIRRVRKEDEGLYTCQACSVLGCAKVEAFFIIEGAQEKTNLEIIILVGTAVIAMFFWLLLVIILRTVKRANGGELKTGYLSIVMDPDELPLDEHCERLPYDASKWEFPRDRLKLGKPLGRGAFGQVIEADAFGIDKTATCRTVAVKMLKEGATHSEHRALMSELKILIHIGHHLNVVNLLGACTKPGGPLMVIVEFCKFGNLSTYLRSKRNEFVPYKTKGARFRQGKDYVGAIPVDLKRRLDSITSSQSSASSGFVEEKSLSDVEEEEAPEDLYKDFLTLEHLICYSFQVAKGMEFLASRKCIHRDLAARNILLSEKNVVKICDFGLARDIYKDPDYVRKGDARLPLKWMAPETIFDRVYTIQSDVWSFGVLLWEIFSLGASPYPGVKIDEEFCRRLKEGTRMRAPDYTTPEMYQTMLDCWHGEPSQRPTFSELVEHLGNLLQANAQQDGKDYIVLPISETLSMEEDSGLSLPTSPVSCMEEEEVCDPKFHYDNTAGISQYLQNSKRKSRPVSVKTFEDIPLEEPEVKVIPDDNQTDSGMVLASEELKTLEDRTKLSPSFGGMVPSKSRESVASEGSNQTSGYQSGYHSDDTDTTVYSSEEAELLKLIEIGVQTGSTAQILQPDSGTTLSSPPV

Regarding `O=C1OCC/C=C/CC/C=C/C(=N/OCC(=O)N2CCCCC2)Cc2c(Cl)c(O)cc(O)c21` [2a-1], the EC50 in series [1] stood at 320 nM; in [2], 125 nM; in series [3] (SK-BR-3, SK-BR3, 18 hrs treatment, Western blotting), 26 nM. For the same compound, the tumor size result in series [4] (25 mg/kg, 50 mg/kg and 100 mg/kg) is “dose-dependent reduction in tumor size”. In addition, the “tumor size compared with Herceptin® at 10 mg/kg” value in [4] (even at the 25 mg/kg dose for three weeks) was “superior to those obtained in mice treated with Herceptin®”. For the same compound, the “re-growth of tumor after the last treatment” value in series [4] (mouse, in vivo) is “did not occur for three to seven days”. Further, the weight loss entry in series [5] (25 mg/kg once daily for five consecutive days) is recorded as “did not show any weight loss”. Besides, the body weight loss entry in [5] (50 mg/kg once daily for five consecutive days) is “slight, but acceptable body weight loss”; in [5] (100 mg/kg once daily for five consecutive days), “slight, but acceptable body weight loss”.

Consider `O=C1OCC/C=C/CC/C=C/C(=N/OCC(=O)N2CCCCC2)Cc2cc(O)cc(O)c21` [2a-13], for which the EC50 in [1] is 220 nM; in series [2], 120 nM; in [3] (SK-BR-3, 18 h), 12 nM.

Turning to `CCCCn1c(Cc2cc(OC)c(OC)c(OC)c2)nc2c(N)ncnc21` [PU3], the IC50 in [6] was 40000 nM.

On to `C[C@@H]1C[C@H]2O[C@@H]2/C=C\C=C\C(=O)Cc2c(Cl)c(O)cc(O)c2C(=O)O1` [Radicicol, radicicol], for which the “IC50 in panel of 24 kinase assays (blank cells; summary in words)” value in series [7] (a blank represents an IC50 > 50 μM) is “no inhibition”. Further, the “inhibition in a panel of 24 kinase” value in series [7] is reported as “no significant activity”. Moreover, the IC50 in series [8] stood at 49 µM; in [3] (SK-BR-3, 18 h, read-out: IC50, degradation of ErbB2), 289 nM. Further, in series [9], the “activity in tumor xenograft models” value was “inactive”. Also, the water solubility entry in series [10] is reported as “poorly water-soluble”.

With `C[C@@H]1CC2O[C@@H]2CC/C=C/C(=O)Cc2c(Cl)c(O)cc(O)c2C(=O)O1` (stereo partly shown) [pochonin A], the IC50 in [11] and in series [12] was 90 nM each time. The “inhibition in a panel of 24 kinase” value in series [7] is on record as “no significant activity”.

What is called EC50 is the midpoint of the concentration-response curve.
